Data published in US11040949B2, “Compounds affecting pigment production and methods for treatment of bacterial diseases” (Versitech Limited, priority 2017, dated 2021).

Test system: methicillin-resistant S. aureus (MRSA)
Assay: MRSA skin infection, wound closure
Assay type: in vivo, mice
Conditions: for wound healing compared with mupirocin and linezolid: 30 mg/kg oral BID for 7 days
Experimental: FIG. 11B are photos from the top view of mice with skin infection caused by MRSA before (at Day 0) and after different treatments (at Day 7): top left received 2% mupirocin via topical BID for 7 days; top right received 100 mg/kg linezolid via oral BID for 7 days; bottom received 30 mg/kg IM032 via oral BID for 7 days.
Visual wound healing/closure in different treatment groups of mice can be observed in FIG. 11B.

How did the “wound healing compared with mupirocin and linezolid” value (listed as ALS-4) turn out when `O=C(/C=C/c1ccccc1Br)Nc1ccc(S(=O)(=O)N2CCCCC2)cc1` [NP16-XL-016, 3-(6-bromophenyl)-N-[4-(1-piperidine-1-sulfonyl)phenyl]-acrylamide] was run?
Its value is “statistically significant improvement in wound healing”.

And the “wound healing compared with mupirocin and linezolid” value (listed as IM032)?
The value was “best visual wound healing”.

And the “percentage of wound closure” value (30 mg/kg oral twice a day, Day 7)?
The value was 63.8%.
